From EP0151577B1 (priority 1983, dated 1984)

Legend:
[1] = Solubility in water and organic solvents; type: physicochemical
Excerpt: II est insoluble dans le benzene, l'acetate d'ethyle et le chloroforme.

[2] = test system: cellules des neuroblastomes; test: Inhibition of serotonin incorporation into neuroblastoma cells in vitro; type: cell-based; settings: 0°C
[3] = Acute toxicity in the mouse, DL50 i.v. (Behrens-Karber); settings: in vivo, iv, souris, survivors checked 15 days after administration, read-out: DL 50 i.v.
Excerpt: D'autres études pharmacologiques ont été entreprises, en particulier pour apprécier la toxicite aigue chez la souris. Les divers produits étudiés sont administrés a doses croissantes en progression arithmetique a des lots de 5 souris femelles SWISS, EOPS, NMRI/Han pesant 23 a 24 g.
Les produits sont solubilises dans I'eau distillée. Les DL 50 sont calculées par la méthode de BEHRENS (B.) et KARBER (C.). Le nombre d'animaux survivants dans les differents lots est vérifié 15 jours après I'administration des produits. La toxicité aigue (DL 50) exprimée en g/kg est supérieure a 5, avec la voie d'administration i.v. pour le DF-5HTP un produit représentatif selon l'invention.

rat = test: Anti-stress activity: restraint ulcer in the rat; type: in vivo; settings: 174 mg/kg i.p.
Excerpt: BONFILS, S., LIEFOOGHE, GK, ROSSI, G. and LAMBLING, A. L'ulcère de contrainte du Rat blanc. Modifications de la fréquence lesionnelle par différents precedes opératoires et pharmacodynamiques. C.R. Soc. Biol., 151, 1149, 1957.
BONFILS, S., ROSSI, G., LIEFOOGHE, G. and LAMBLING, A., Ulcère experimental de contrainte, I. Méthodes, fréquence des lesions, modifications par certains precedes techniques et pharmacologiques. Rev. franç. Etudes clin. biol., 4,146, 1959.

souris [4] = test: Anticonvulsant activity, MES; type: in vivo
Excerpt: Activite anticonvulsivante (MES): % de protection Temps de sommeil au pentobarbital: WYATT, R.J., ZARKONE, V. […], K., DEMENT, W.C., SMYDER, F. and SJOERDSMA, A., Effects of 5-Hydroxytryptophan on the sleep of normal human subjects. Electroencephaly and Clinical Neurophysiology 30, 5051971.

M. Leprae = test: Multiplication of M. leprae in mouse foot pads; type: in vivo, Mycobacterium leprae; settings: 20 mg/kg par voie orale, daily from inoculation
Method: Le tableau 7 contient les résultats d'essai concernant l'activité du DF-5HTP sur les M. leprae sur les pattes de souris. Le protocole experimental était le suivant:
MESTER, L., and BALAKRISHNAN, S., Desoxyfructo-serotonin: First Human Metabolite with Antileprosy Activity. Acta Lepr. N°83, 21, 1981.
La dose de DF-5HTP était de 0,5 mg par 5 g de nourriture et par souris. Cette dose était administrée tous les jours a partir de la date d'inoculation. Les essais ont porté sur un lot de 24 souris.
Protocole: Sur la patte de chaque souris on a inoculé 5 x 10^6 M.leprae montrant un index morphologique (I. M.) = 2 %. Les chiffres suivis par X indiquent la multiplication de M. leprae initialement inoculé. (Pour la méthode utilisée voir MESTER, L., and BALAKRISHNAN, S., Desoxyfructo-serotonin: First Human Metabolite with Antileprosy Activity, Acta Lepr. N° 83, 21,1981.

Rythme cardiaque = test: Cardiovascular activity: heart rate; type: in vivo
Excerpt: (§1) Le protocole experimental était celui décrit dans "Sugar Derivatives of Indolamines. part V: Cardiovascular Effects and "Anti-stress" Activity of Desoxyfructose Derivative of Serotonin and 5-Metho-xy- tryptamin", L. Mester, M. Mester, K.P. Bhargava, C. Labrid, G. Dureng and M. Cheucle, THROMBOSIS […], 15,245,1979.

[5] = test system: réponse à l'obstruction de la carotide; test: Cardiovascular activity: response to carotid occlusion (CO); type: in vivo
Excerpt: as §1

souris [6] = test: Anti-stress activity: swimming endurance; type: in vivo; settings: 174 mg/kg i.p., souris observed up to 540 min; témoins 385 ± 31 min
Method: Au tableau 4, la lettre N designe le nombre d'animaux (souris). Un astérisque indique une activite importante. Deux astérisques indiquent une possibilité d'activité positive. Dans I'essai d'endurance a la nage, on a observe les souris jusqu'à 540 minutes, la durée moyenne de nage pour les souris témoins étant de 385 ± 31 minutes.
(N) - représente le nombre d'animaux * - activité importante ** - activite positive possible Pour I'endurance a la nage, les souris ont été observées jusqu'à 540 min, la durée moyenne de nage chez les souris témoins était de 385 + 31 min. *** - La leucocytose a été induite par 0,1 ml de lait (sous-cutanée) avant traitement avec le medicament.

souris [7] = test: General pharmacological profile: spontaneous motor activity; type: in vivo; settings: souris
Excerpt: Activite motrice spontanée: MODIGH, K., Central and peripheral effects of 5-hydroxytryptophan on motor activity in mice. Psychopharmacologia (Berlin), 23, 48, 1972. Cadence respiratoire: […], S., and VALZELLI, L. Serotonin and cardiovascular system, Chapter 9, in "Serotonin", Elsevier Publ. Co. Amsterdam 1965.

[8] = 10 mg par voie cérébroventriculaire

Compound: O=C(O)C(Cc1c[nH]c2ccc(O)cc12)NCC1(O)OCC(O)C(O)C1O (centres unmarked) [DF-5HTP, N-1-desoxyfructo-5-hydroxytryptophane]
- solubilité dans le benzene, l'acetate d'ethyle et le chloroforme ([1]; benzene, acetate d'ethyle, chloroforme): insoluble
- soluble dans I'eau ([1]; eau): facilement soluble
- % Inhibition à 0°C de l'incorporation de la sérotonine dans les cellules nerveuses [2]: 50%
- LD50 at 360 h [3]: > 5000 mg/kg
- Effet anti-ulcère chez le rat (18 heures sous contrainte) Indice d'Ul-cération (rat; témoin 34): 10^**(4)
- Effet anti-ulcère chez le rat (18 heures sous contrainte) % Ul-cération (rat; témoin 90): 50%
- Activité anticon-vulsivante MES % protection (souris [4]; 100 mg/kg (ip), 15 min, Tableau 2): 0%
- Activité anticon-vulsivante MES % protection (souris [4]; 100 mg/kg (ip), 30 min): 0%
- Activité anticon-vulsivante MES % protection (souris [4]; 100 mg/kg (ip), 60 min): 0%
- Activité anticon-vulsivante MES % protection (souris [4]; 174 mg/kg (ip), 15 min): 20%
- Activité anticon-vulsivante MES % protection (souris [4]; 174 mg/kg (ip), 30 min): 20%
- Activité anticon-vulsivante MES % protection (souris [4]; 174 mg/kg (ip), 60 min): 0%
- multiplication de M. Leprae sur les pattes des souris (M. Leprae; 4 mois après inoculation, témoins 33,8 X): 2,8 X
- multiplication de M. Leprae sur les pattes des souris (M. Leprae; 6 mois après inoculation, témoins 38,4 X): Négatif
- Rythme cardiaque Durée (min) (Rythme cardiaque; [8]): non mani-festée à 150
- Rythme cardiaque Mesure à (Rythme cardiaque; [8]): 30 min
- Rythme cardiaque Pic (Rythme cardiaque; [8]): 75 min
- Rythme cardiaque Durée (Rythme cardiaque; 100 mg par voie intraveineuse): 45 min
- Rythme cardiaque Mesure à (Rythme cardiaque; 100 mg par voie intraveineuse): 5 min
- Rythme cardiaque Pic (Rythme cardiaque; 100 mg par voie intraveineuse): 10 min
- REPONSE CO Durée [5, 8]: 120 min
- REPONSE CO Mesure à [5, 8]: 30 min
- REPONSE CO Pic [5, 8]: 30 min
- REPONSE CO Durée ([5]; 100 mg par voie intraveineuse): 45 min
- REPONSE CO Mesure à ([5]; 100 mg par voie intraveineuse): 1 min
- REPONSE CO Pic ([5]; 100 mg par voie intraveineuse): 1 min
- Endurance à la nage % d'augmentation (souris [6]): 40^** %
- Activité motrice spontanée (souris [7]; 100 mg/kg (ip), Tableau 2): légère augmentation
- Activité motrice spontanée (souris [7]; 174 mg/kg (ip)): augmentation
